Assay results from patent US8263597B2, “Indazole compounds as CCR1 receptor antagonists” (Boehringer Ingelheim International GmbH, priority 2008, dated 2012).
pIC50: −log10 of the molar value.

biological target: T1, CCR1 (Homo sapiens, UniProt P32246); experiment: Calcium flux in response to MIP-1 alpha in CCR1-transfected cells, Method B (Calcium 4 dye, […] FDSS6000); format: cell-based; conditions: cells stably expressing recombinant CCR1 and G-alpha-16; MIP-1 alpha at EC80; 30 minutes at 37 C then 30 minutes at room temperature
T1 sequence (P32246 1-355): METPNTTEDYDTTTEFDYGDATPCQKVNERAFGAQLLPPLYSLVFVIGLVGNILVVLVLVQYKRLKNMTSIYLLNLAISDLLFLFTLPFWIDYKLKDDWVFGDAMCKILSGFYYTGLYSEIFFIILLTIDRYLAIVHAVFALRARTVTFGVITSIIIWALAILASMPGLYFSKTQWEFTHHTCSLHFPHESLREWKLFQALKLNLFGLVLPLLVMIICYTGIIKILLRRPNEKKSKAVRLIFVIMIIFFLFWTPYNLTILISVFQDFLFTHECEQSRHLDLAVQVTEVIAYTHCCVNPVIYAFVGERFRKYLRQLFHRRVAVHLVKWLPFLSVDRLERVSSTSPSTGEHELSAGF
Description: (§1) Compounds are assessed for the ability to block the interaction of CCR1 and its ligand in a functional cellular assay measuring calcium flux in response to MIP-1α in CCR1-transfected cells.
Method B: Non-adherent cells purchased from Chemicon Corporation (HTS005C), stably expressing recombinant CCR1 and G-alpha-16 are grown in RPMI 1640 medium (Mediatech 10-080-CM) supplemented with 10% FBS, 0.4 mg/mL Geneticin and penicillin/streptomycin. On the day of the assay, the cells are loaded with Calcium 4 dye (Molecular Devices R7448) with Probenecid (Invitrogen P346400) at 8E5 cells/mL for 1 hour at room temperature. After 1 hour, they are seeded in a 384-well tissue culture-treated plate at a density of 20,000 cells/well. Appropriately diluted test compound is added to the well to achieve a top concentration of 3,000 nM (diluted 4-fold with 10 doses total). The final concentration of DMSO is 1%. The buffer is HBSS (Invitrogen 14025) with 20 mM HEPES at pH 7.4. The cells incubate 30 minutes at 37 C and then 30 minutes at room temperature. The plates are transferred to the […] FDSS6000 where MIP-1 alpha in 1% BSA is added at the EC80 final concentration. All plates must be read within 4 hours of the start of dye-loading. Wells +/−MIP-1alpha containing diluted DMSO instead of compound serve as the controls. Data are analyzed using Activity Base software.

First: CC[C@H](NC(=O)c1cccc2c1cnn2-c1ccc(F)cc1)c1ccc(S(C)(=O)=O)nc1 [1-(4-Fluoro-phenyl)-1H-indazole-4-carboxylic acid [(S)-1-(6-methanesulfonyl-pyridin-3-yl)-propyl]-amide]
Second: CC[C@H](NC(=O)c1cc(Br)cc2c1cnn2-c1ccc(F)cc1)c1ccc(S(C)(=O)=O)nc1 [6-Bromo-1-(4-fluoro-phenyl)-1H-indazole-4-carboxylic acid [(S)-1-(6-methanesulfonyl-pyridin-3-yl)-propyl]-amide]
The pIC50 of the first is 1.06 log units higher: 8.70 for the first, 7.64 for the second.

biological target: T1, CCR1; experiment: Calcium flux in response to MIP-1 alpha in CCR1-transfected cells, Method A (Fluo-4 NW, FLIPR TETRA); format: cell-based; conditions: cells stably expressing recombinant CCR1 and G-alpha-16; MIP-1 alpha at EC80; 1 hour incubation at room temperature
Description: as §1
On the day of the assay, the cells are transferred to a beaker and dye-loaded in bulk using a Fluo-4 NW Calcium Assay Kit with probenecid (Invitrogen F36205) at 0.8E6 cells/mL for 1 hour at room temperature. After 1 hour, they are seeded in a 384-well tissue culture-treated plate at a density of 20,000 cells/well. Appropriately diluted test compound is added to the well to achieve a top concentration of 3,000 nM (diluted 3-fold with 10 doses total). The final concentration of DMSO is 1%. […] The cells are allowed to incubate 1 hour in the dark at room temperature. The plates are transferred to the FLIPR TETRA where MIP-1 alpha in 1% BSA is added at the EC80 final concentration. Wells +/−MIP-1 alpha containing diluted DMSO instead of compound serve as the controls.

Going from `CS(=O)(=O)c1cccc(CNC(=O)c2cc(C#N)cc3c2cnn3-c2ccc(F)cc2)c1` [6-Cyano-1-(4-fluoro-phenyl)-1H-indazole-4-carboxylic acid 3-methanesulfonyl-benzylamide] to `CS(=O)(=O)c1ccc(CNC(=O)c2cc(C#N)cc3c2cnn3-c2ccc(F)cc2)cn1` [6-Cyano-1-(4-fluoro-phenyl)-1H-indazole-4-carboxylic acid (6-methanesulfonyl-pyridin-3-ylmethyl)-amide], the pIC50 falls from 8.70 to 8.15 (0.55 log units).

First: CNS(=O)(=O)c1ccc(CNC(=O)c2cccc3c2cnn3-c2ccc(F)cc2)c(Cl)c1 [1-(4-Fluoro-phenyl)-1H-indazole-4-carboxylic acid 2-chloro-4-methylsulfamoyl-benzylamide]
Second: CS(=O)(=O)c1ccc(CNC(=O)c2cccc3c2cnn3-c2ccc(F)cc2)c(Cl)c1 [1-(4-Fluoro-phenyl)-1H-indazole-4-carboxylic acid 2-chloro-4-methanesulfonyl-benzylamide]
The pIC50 of the first is 0.23 log units higher: 8.40 for the first, 8.17 for the second. The first is the more potent here.

Compared with `CCOC(=O)COc1cc(CNC(=O)c2cccc3c2cnn3-c2ccc(F)cc2)ccn1` [[4-({[1-(4-Fluoro-phenyl)-1H-indazole-4-carbonyl]-amino}-methyl)-pyridin-2-yloxy]-acetic acid ethyl ester], `COc1cc(CNC(=O)c2cccc3c2cnn3-c2ccc(F)cc2)ccn1` [1-(4-Fluoro-phenyl)-1H-indazole-4-carboxylic acid (2-methoxy-pyridin-4-ylmethyl)-amide] is 0.81 log units higher in pIC50: 6.85 for the first, 7.66 for the second. The second is the more potent here.

Compared with `CNS(=O)(=O)c1ccc(CNC(=O)c2cc(C#N)cc3c2cnn3-c2ccc(F)cc2)cc1` [6-Cyano-1-(4-fluoro-phenyl)-1H-indazole-4-carboxylic acid 4-methylsulfamoyl-benzylamide], `CNS(=O)(=O)c1ccc(CNC(=O)c2cc(C)cc3c2cnn3-c2ccc(F)cc2)cc1` [1-(4-Fluoro-phenyl)-6-methyl-1H-indazole-4-carboxylic acid 4-methylsulfamoyl-benzylamide] is 1.82 log units lower in pIC50: 9.52 for the first, 7.70 for the second.

First: CN1CCC(N(C)S(=O)(=O)c2ccc(CNC(=O)c3cc(C#N)cc4c3cnn4-c3ccc(F)cc3)cc2)CC1 [6-Cyano-1-(4-fluoro-phenyl)-1H-indazole-4-carboxylic acid 4-[methyl-(1-methyl-piperidin-4-yl)-sulfamoyl]-benzylamide]
Second: CN1CCC(NS(=O)(=O)c2ccc(CNC(=O)c3cc(C#N)cc4c3cnn4-c3ccc(F)cc3)cc2)CC1 [6-Cyano-1-(4-fluoro-phenyl)-1H-indazole-4-carboxylic acid 4-(1-methyl-piperidin-4-ylsulfamoyl)-benzylamide]
The pIC50 of the first is 0.55 log units higher: 8.29 for the first, 7.74 for the second.

Going from `CC(C)NS(=O)(=O)Cc1ccc(CNC(=O)c2cccc3c2cnn3-c2ccc(F)cc2)cc1` [1-(4-Fluoro-phenyl)-1H-indazole-4-carboxylic acid 4-(isopropylsulfamoyl-methyl)-benzylamide] to `O=C(NCc1ccc(S(=O)(=O)NCCO)cc1)c1cccc2c1cnn2-c1ccc(F)cc1` [1-(4-Fluoro-phenyl)-1H-indazole-4-carboxylic acid 4-(2-hydroxy-ethylsulfamoyl)-benzylamide], the pIC50 rises from 7.26 to 8.04 (0.78 log units). The second is the more potent here.

First: CNS(=O)(=O)c1ccc(CNC(=O)c2cccc3c2cnn3-c2ccc(F)cc2)c(F)c1 [1-(4-Fluoro-phenyl)-1H-indazole-4-carboxylic acid 2-fluoro-4-methylsulfamoyl-benzylamide]
Second: COCCNS(=O)(=O)c1ccc(CNC(=O)c2cccc3c2cnn3-c2ccc(F)cc2)cc1 [1-(4-Fluoro-phenyl)-1H-indazole-4-carboxylic acid 4-(2-methoxy-ethylsulfamoyl)-benzylamide]
The pIC50 of the first is 0.27 log units higher: 8.27 for the first, 8.00 for the second.

`O=C(NCc1ccc(S(=O)(=O)NC2CCOCC2)cc1)c1cccc2c1cnn2-c1ccc(F)cc1` [1-(4-Fluoro-phenyl)-1H-indazole-4-carboxylic acid 4-(tetrahydro-pyran-4-ylsulfamoyl)-benzylamide] and `O=C(NCc1ccc(S(=O)(=O)N2CCOCC2)cc1)c1cccc2c1cnn2-c1ccc(F)cc1` [1-(4-Fluoro-phenyl)-1H-indazole-4-carboxylic acid 4-(morpholine-4-sulfonyl)-benzylamide] are within 0.2 log units of each other in pIC50: 7.70 for the first, 7.85 for the second.

First: CCC[C@H](NC(=O)c1cccc2c1cnn2-c1ccc(F)cc1)c1cccc(Br)c1 [1-(4-Fluoro-phenyl)-1H-indazole-4-carboxylic acid [(S)-1-(3-bromo-phenyl)-butyl]-amide]
Second: O=C(NCc1cccc(Br)c1)c1cccc2c1cnn2-c1ccc(F)cc1 [1-(4-Fluoro-phenyl)-1H-indazole-4-carboxylic acid 3-bromo-benzylamide]
The pIC50 of the first is 0.60 log units higher: 7.72 for the first, 7.12 for the second. The first is the more potent here.

Going from `COc1cc(CNC(=O)c2cccc3c2cnn3-c2ccc(F)cc2)cc(OC)c1` [1-(4-Fluoro-phenyl)-1H-indazole-4-carboxylic acid 3,5-dimethoxy-benzylamide] to `N#Cc1cc(CNC(=O)c2cccc3c2cnn3-c2ccc(F)cc2)ccn1` [1-(4-Fluoro-phenyl)-1H-indazole-4-carboxylic acid (2-cyano-pyridin-4-ylmethyl)-amide], the pIC50 falls from 7.60 to 6.92 (0.68 log units).

First: CN1CCC(N(C)S(=O)(=O)c2ccc(CNC(=O)c3cccc4c3cnn4-c3ccc(F)cc3)cc2)CC1 [1-(4-Fluoro-phenyl)-1H-indazole-4-carboxylic acid 4-[methyl-(1-methyl-piperidin-4-yl)-sulfamoyl]-benzylamide]
Second: CN(C)C1CCN(S(=O)(=O)c2ccc(CNC(=O)c3cccc4c3cnn4-c3ccc(F)cc3)cc2)CC1 [1-(4-Fluoro-phenyl)-1H-indazole-4-carboxylic acid 4-(4-dimethylamino-piperidine-1-sulfonyl)-benzylamide]
The pIC50 of the first is 0.28 log units lower: 7.36 for the first, 7.64 for the second. The second is the more potent here.

Compared with `N#Cc1cc(C(=O)NCc2ccc(Br)nc2)c2cnn(-c3ccc(F)cc3)c2c1` [6-Cyano-1-(4-fluoro-phenyl)-1H-indazole-4-carboxylic acid (6-bromo-pyridin-3-ylmethyl)-amide], `CS(=O)(=O)Nc1ccc(CNC(=O)c2cc(C#N)cc3c2cnn3-c2ccc(F)cc2)cn1` [6-Cyano-1-(4-fluoro-phenyl)-1H-indazole-4-carboxylic acid (6-methanesulfonylamino-pyridin-3-ylmethyl)-amide] is 0.68 log units higher in pIC50: 7.68 for the first, 8.36 for the second.

First: CC(=O)NCCNS(=O)(=O)c1ccc(CNC(=O)c2cccc3c2cnn3-c2ccc(F)cc2)cc1 [1-(4-Fluoro-phenyl)-1H-indazole-4-carboxylic acid 4-(2-acetylamino-ethylsulfamoyl)-benzylamide]
Second: CNS(=O)(=O)c1ccc(CNC(=O)c2cc(S(C)(=O)=O)cc3c2cnn3-c2ccc(F)cc2)cc1 [1-(4-Fluoro-phenyl)-6-methanesulfonyl-1H-indazole-4-carboxylic acid 4-methylsulfamoyl-benzylamide]
The pIC50 of the first is 0.59 log units lower: 6.96 for the first, 7.55 for the second. The second is the more potent here.

Compared with `CC(NC(=O)c1cccc2c1cnn2-c1ccc(F)cc1)c1cccc(C(F)(F)F)c1` (stereo not drawn) [1-(4-Fluoro-phenyl)-1H-indazole-4-carboxylic acid [1-(3-trifluoromethyl-phenyl)-ethyl]-amide], `CN1CCN(S(=O)(=O)c2ccc(CNC(=O)c3cc(C#N)cc4c3cnn4-c3ccc(F)cc3)cc2)CC1` [6-Cyano-1-(4-fluoro-phenyl)-1H-indazole-4-carboxylic acid 4-(4-methyl-piperazine-1-sulfonyl)-benzylamide] is 0.97 log units higher in pIC50: 7.85 for the first, 8.82 for the second. The second is the more potent here.
